Measurements from article PMC10041525, “New Dual Inhibitors of Bacterial Topoisomerases with Broad-Spectrum Antibacterial Activity and In Vivo Efficacy against Vancomycin-Intermediate Staphylococcus aureus” (Journal of Medicinal Chemistry, 2023).

Test system: 100 A. baumannii strains (50 MDR, 50 non-MDR)
Test: MIC broth microdilution at IHMA Europe, panel of 100 strains
Format: cell-based

piperacillin/tazobactam [Piperacillin Tazobactam]
MIC (A. baumannii IHMA 1769393, Lithuania 2018, Non-MDR): ≤0.25 µg/mL
MIC (A. baumannii IHMA 1769782, Israel 2018, MDR): >128 µg/mL
MIC (A. baumannii IHMA 1769910, Israel 2018, Non-MDR): ≤0.25 µg/mL
MIC (A. baumannii IHMA 1790317, Czech Republic 2018, Non-MDR): ≤0.25 µg/mL
MIC (A. baumannii IHMA 1790916, Romania 2018, Non-MDR): ≤0.25 µg/mL
MIC (A. baumannii IHMA 1791877, Israel 2018, MDR): >128 µg/mL
MIC (A. baumannii IHMA 1792961, Jordan 2018, MDR): >128 µg/mL
MIC (A. baumannii IHMA 1795669, Tunisia 2018, Non-MDR): ≤0.25 µg/mL
MIC (A. baumannii IHMA 1814276, Lebanon 2018, MDR): >128 µg/mL
MIC (A. baumannii IHMA 1815198, Kuwait 2018, MDR): >128 µg/mL
MIC (A. baumannii IHMA 1815856, Israel 2018, MDR): >128 µg/mL
MIC (A. baumannii IHMA 1821468, South Africa 2018, Non-MDR): ≤0.25 µg/mL
MIC (A. baumannii IHMA 1829500, Georgia 2018, Non-MDR): ≤0.25 µg/mL
MIC (A. baumannii IHMA 1830924, United Kingdom 2018, Non-MDR): 16 µg/mL
MIC (A. baumannii IHMA 1849819, Kuwait 2018, MDR): >128 µg/mL
MIC (A. baumannii IHMA 1849829, Kuwait 2018, Non-MDR): ≤0.25 µg/mL
MIC (A. baumannii IHMA 1857118, Slovenia 2018, Non-MDR): ≤0.25 µg/mL
MIC (A. baumannii IHMA 1863631, France 2018, Non-MDR): ≤0.25 µg/mL
MIC (A. baumannii IHMA 1870054, United States 2018, Non-MDR): ≤0.25 µg/mL
MIC (A. baumannii IHMA 1884428, Italy 2018, Non-MDR): ≤0.25 µg/mL
MIC (A. baumannii IHMA 1884990, Germany 2018, Non-MDR): ≤0.25 µg/mL
MIC (A. baumannii IHMA 1900538, Turkey 2018, Non-MDR): ≤0.25 µg/mL
MIC (A. baumannii IHMA 1913773, Kenya 2018, Non-MDR): ≤0.25 µg/mL
MIC (A. baumannii IHMA 1926285, Qatar 2018, Non-MDR): ≤0.25 µg/mL
MIC (A. baumannii IHMA 1926288, Qatar 2018, MDR): >128 µg/mL
MIC (A. baumannii IHMA 1957343, Portugal 2019, Non-MDR): 8 µg/mL
MIC (A. baumannii IHMA 1963732, Turkey 2019, MDR): >128 µg/mL
MIC (A. baumannii IHMA 1967860, Spain 2019, Non-MDR): ≤0.25 µg/mL
MIC (A. baumannii IHMA 1971673, Latvia 2019, MDR): >128 µg/mL
MIC (A. baumannii IHMA 1975075, Israel 2019, Non-MDR): 8 µg/mL
MIC (A. baumannii IHMA 1977077, Kuwait 2019, Non-MDR): 16 µg/mL
MIC (A. baumannii IHMA 1983151, Greece 2019, MDR): >128 µg/mL
MIC (A. baumannii IHMA 1984665, Lithuania 2019, MDR): >128 µg/mL
MIC (A. baumannii IHMA 1986678, Turkey 2019, Non-MDR): ≤0.25 µg/mL
MIC (A. baumannii IHMA 1986738, Turkey 2019, MDR): >128 µg/mL
MIC (A. baumannii IHMA 1987162, Croatia 2019, MDR): >128 µg/mL
MIC (A. baumannii IHMA 1993615, Turkey 2019, MDR): >128 µg/mL
MIC (A. baumannii IHMA 1994284, Italy 2019, MDR): >128 µg/mL
MIC (A. baumannii IHMA 1995161, Czech Republic 2019, Non-MDR): ≤0.25 µg/mL
MIC (A. baumannii IHMA 1997936, Morocco 2019, Non-MDR): 4 µg/mL
MIC (A. baumannii IHMA 1999178, Belgium 2019, Non-MDR): 4 µg/mL
MIC (A. baumannii IHMA 2003279, Turkey 2019, MDR): >128 µg/mL
MIC (A. baumannii IHMA 2014367, Jordan 2019, Non-MDR): 4 µg/mL
MIC (A. baumannii IHMA 2014931, South Africa 2019, Non-MDR): 0.5 µg/mL
MIC (A. baumannii IHMA 2019315, Romania 2019, Non-MDR): ≤0.25 µg/mL
MIC (A. baumannii IHMA 2020360, Croatia 2019, MDR): >128 µg/mL
MIC (A. baumannii IHMA 2031511, Greece 2019, Non-MDR): ≤0.25 µg/mL
MIC (A. baumannii IHMA 2031524, Greece 2019, MDR): >128 µg/mL
MIC (A. baumannii IHMA 2034657, Tunisia 2019, Non-MDR): ≤0.25 µg/mL
MIC (A. baumannii IHMA 2035089, Serbia 2019, MDR): >128 µg/mL
MIC (A. baumannii IHMA 2035134, Serbia 2019, Non-MDR): 4 µg/mL
MIC (A. baumannii IHMA 2038976, Hungary 2019, MDR): >128 µg/mL
MIC (A. baumannii IHMA 2051503, Serbia 2019, MDR): >128 µg/mL
MIC (A. baumannii IHMA 2058329, Slovenia 2019, Non-MDR): ≤0.25 µg/mL
MIC (A. baumannii IHMA 2065587, France 2019, Non-MDR): ≤0.25 µg/mL
MIC (A. baumannii IHMA 2099294, United Kingdom 2019, Non-MDR): 4 µg/mL
MIC (A. baumannii IHMA 2129256, Qatar 2019, Non-MDR): ≤0.25 µg/mL
MIC (A. baumannii IHMA 2154584, Israel 2020, MDR): >128 µg/mL
MIC (A. baumannii IHMA 2155340, Kenya 2020, MDR): >128 µg/mL
MIC (A. baumannii IHMA 2156634, Turkey 2020, MDR): >128 µg/mL
MIC (A. baumannii IHMA 2156709, Turkey 2020, MDR): >128 µg/mL
MIC (A. baumannii IHMA 2157614, Australia 2020, Non-MDR): ≤0.25 µg/mL
MIC (A. baumannii IHMA 2177232, Lithuania 2020, MDR): >128 µg/mL
MIC (A. baumannii IHMA 2177489, Lithuania 2020, MDR): >128 µg/mL
MIC (A. baumannii IHMA 2178574, Ukraine 2020, Non-MDR): 2 µg/mL
MIC (A. baumannii IHMA 2180134, Malaysia 2020, Non-MDR): 2 µg/mL
MIC (A. baumannii IHMA 2180142, Malaysia 2020, MDR): >128 µg/mL
MIC (A. baumannii IHMA 2181370, Morocco 2020, MDR): >128 µg/mL
MIC (A. baumannii IHMA 2183729, Argentina 2020, MDR): >128 µg/mL
MIC (A. baumannii IHMA 2183849, Argentina 2020, Non-MDR): ≤0.25 µg/mL
MIC (A. baumannii IHMA 2184382, Japan 2020, Non-MDR): ≤0.25 µg/mL
MIC (A. baumannii IHMA 2193375, Venezuela 2020, MDR): >128 µg/mL
MIC (A. baumannii IHMA 2193485, Venezuela 2020, Non-MDR): ≤0.25 µg/mL
